Series [1] can be described thus: Solubility in organic solvents. It counts as physicochemical. The conditions noted are these: for solubility (comparison in words): organic solvents.
Series [2] is described as follows: Thermal fragmentation / decomposition (thermogravimetric analysis, heating). The class given is physicochemical. Conditions: for thermal conversion of spin-cast film to pentacene: heating amorphous thin films cast from toluene. How it is done:
FIG. 2 presents thermogravimetric analysis curves for compounds 1 (blue) and 2 (red) at 10° C./min heating rate, assessing the carbon monoxide (CO) expulsion reaction, in which the carbonyl bridge is released from the precursor for conversion to pentacene.
Melting points were taken on a Fargo MP-2D melting-point apparatus and were not corrected. UV spectra were recorded on a Hewlett-Packard 8453 spectrophotometer. Infrared spectra were measured on a Perkin-Elmer L118-F000 FT-IR spectrometer as either thin film or solid dispersion in KBr. Nuclear magnetic resonance spectra were recorded on Bruker AC300 and AV500 super-conducting FT NMR spectrometers with all chemical shifts reported in ppm from tetramethylsilane as an internal standard. Mass spectra were obtained on a Joel JMS 700 double focusing spectrometer. Elemental analyses were performed on a Perkin-Elmer 2400 elemental analyzer. Thermal gravimetric analyses were measured on a Perkin-Elmer Pyris 1 thermogravimetric analyzer. Differential scanning calorimetry was done on a Perkin-Elmer DCS-7 instrument. Column chromatography was carried out using 230-400 mesh silica gel.

Series [3] in a line: Stability on storage / at ambient conditions. It counts as physicochemical.
The conditions of series [4]: organic solvents; cited from earlier work.
For series [5] the following is noted: heating; earlier reports; cited from earlier work.
The mark [6] stands for this setting: toluene, solutions for spin-casting.
Where [7] appears, read: organic solvent or mixture, dichloromethane (DCM) and tetrahydrofuran (THF), read-out: solubility.

In brackets after ≈: the same amount, converted by molar mass. Entries after “also recorded” stand apart in the source; their conditions may differ. Where two headings read alike, the source gives them in different places.

The source of these data is US9034439B2, “Synthesis and applications of soluble pentacene precursors and related compounds” (Academia Sinica, priority 2008, dated 2015).

One may read the solubility as the dissolved amount per volume that the medium holds.

For the molecule `COC1(OC)C2(Cl)C(Cl)=C(Cl)C1(Cl)c1cc3cc4cc5c(cc4cc3cc12)C1(Cl)C(Cl)=C(Cl)C5(Cl)C1(OC)OC` [Compound 23], in series [1] (setting [6]), the solubility entry is “good solubility”. Moreover, the decomposition temperature in series [2] (anti isomer) is 297 °C; in series [2] (syn isomer), 271 °C. Moreover, the “thermal conversion of spin-cast film to pentacene” value in series [2] is recorded as “did not yield either pentacene or 1,2,3,4,8,9,10,11-octachloropentacene”. For the molecule `c1ccc2cc3cc4cc5ccccc5cc4cc3cc2c1` [pentacene], the “temperature up to which stable” value in series [2] (pentacene produced from compound 2, TGA) came to 300 °C.

Take `C1=C[C@@H]2c3cc4cc5cc6c(cc5cc4cc3[C@@H]1[C@]21OCCO1)[C@H]1C=C[C@@H]6[C@]12OCCO2` [Compound 16]: the “fragmentation / dissociation temperature of ethylene ketal (CO2 and ethylene released)” value in series [2] (TGA) was “about 225 °C”.

Take `O=C1C2C=CC1c1cc3cc4cc5c(cc4cc3cc12)C1C=CC5C1=O` [Compound 13A]: in series [3], the “stability (in words)” value is “decomposed readily at ambient conditions; also recorded: not stable enough to sustain at ambient conditions”. On the same count and under the same terms, in the case of `O=C1[C@@H]2C=C[C@@H]1c1cc3cc4cc5ccccc5cc4cc3cc12` [Compound 11] it was “relatively low”.

In the case of `c1csc(-c2ccc3cc4cc(-c5cccs5)ccc4cc3c2)c1` [Compound 35], the solubility entry in series [4] is “undesirably low solubility”.

On to `O=C1C2c3ccccc3[C@@H]1c1cc3c(cc12)[C@@H]1C(=O)[C@@H]3c2ccccc21` [Compound 12], for which the “stability (in words)” value in series [3] is “stable at low temperature for a long period of time; also recorded: can be kept at −10 °C for an extended period of time”. For the same molecule, the “solubility (comparison in words)” value in series [1] was “higher solubility than either compound 1 or 2”.

For `O=C1[C@H]2c3cc4ccccc4cc3[C@H]1c1cc3ccccc3cc12` [Compound 1, reference compound], the “temperature of CO extrusion to pentacene” value in series [5] is 150 °C. In addition, the solubility in series [1] (setting [7]) was around 700 µg/mL (≈ 2280 µM). Besides, in series [2] (TGA, 10° C./min heating rate), the “temperature at which CO expulsion / decomposition starts” value was 150 °C.

In the case of `C(=C\c1cccs1)/c1ccc2cc3cc(/C=C/c4cccs4)ccc3cc2c1` [Compound 36], the solubility result in series [4] is reported as “undesirably low solubility”. As for `C(=C\c1ccc2cc3cc(/C=C/c4ccccc4)ccc3cc2c1)/c1ccccc1` [Compound 38], the solubility entry in series [4] is on record as “undesirably low solubility”. `COC1(OC)C2C=CC1c1cc3cc4cc5c(cc4cc3cc12)C1C=CC5C1(OC)OC` [Compound 25]: the solubility result in series [1] (setting [6]) is “good solubility”. Besides, the decomposition temperature in series [2] (anti isomer) stood at 288 °C; in series [2] (syn isomer), 252 °C. Moreover, the “thermal conversion of spin-cast film to pentacene” value in series [2] is “did not yield either pentacene or 1,2,3,4,8,9,10,11-octachloropentacene”. As for `O=C1C2C=CC1c1cc3c(cc12)[C@H]1C(=O)[C@H]3c2cc3c(cc21)C1C=C[C@H]3C1=O` [Compound 14], the “stability (in words)” value in series [3] was “relatively low”. For `c1ccc(-c2ccc3cc4cc(-c5ccccc5)ccc4cc3c2)cc1` [Compound 37], the solubility entry in series [4] is listed as “undesirably low solubility”. Take `O=C1C2C=CC1c1cc3cc4cc5c(cc4cc3cc12)C1C=CC5C1=O` [Compound 13]: in series [3], the “stability (in words)” value is given as “cannot be isolated at ambient temperature; also recorded: relatively low”. Consider `O=C1[C@@H]2c3ccccc3[C@@H]1c1cc3cc4ccccc4cc3cc12` [Compound 2], for which the “temperature of CO extrusion to pentacene” value in series [5] is 128 °C. Also, the “stability (in words)” value in series [3] was “stable at ambient temperature”. In series [1] (setting [7]), the solubility is around 700 µg/mL (≈ 2280 µM). Moreover, the “solubility (comparison in words)” value in series [1] was “better than compound 1”. Besides, in series [2] (thermogravimetric curve, corresponds to a CO unit), the weight loss stood at 10%.
